Experimental data from US20150299219A1, “BICYCLIC PYRAZOLONE COMPOUNDS AND METHODS OF USE” (Calitor Sciences, LLC, priority 2014, published 2015).

Experiments:
Type in all cases: biochemical
Axl (h) = target: T1, Axl (h) (Homo sapiens, UniProt P30530); assay: Axl (h) kinase assay
T1 construct: purchased Millipore UK Ltd
T1 sequence (P30530 26-894): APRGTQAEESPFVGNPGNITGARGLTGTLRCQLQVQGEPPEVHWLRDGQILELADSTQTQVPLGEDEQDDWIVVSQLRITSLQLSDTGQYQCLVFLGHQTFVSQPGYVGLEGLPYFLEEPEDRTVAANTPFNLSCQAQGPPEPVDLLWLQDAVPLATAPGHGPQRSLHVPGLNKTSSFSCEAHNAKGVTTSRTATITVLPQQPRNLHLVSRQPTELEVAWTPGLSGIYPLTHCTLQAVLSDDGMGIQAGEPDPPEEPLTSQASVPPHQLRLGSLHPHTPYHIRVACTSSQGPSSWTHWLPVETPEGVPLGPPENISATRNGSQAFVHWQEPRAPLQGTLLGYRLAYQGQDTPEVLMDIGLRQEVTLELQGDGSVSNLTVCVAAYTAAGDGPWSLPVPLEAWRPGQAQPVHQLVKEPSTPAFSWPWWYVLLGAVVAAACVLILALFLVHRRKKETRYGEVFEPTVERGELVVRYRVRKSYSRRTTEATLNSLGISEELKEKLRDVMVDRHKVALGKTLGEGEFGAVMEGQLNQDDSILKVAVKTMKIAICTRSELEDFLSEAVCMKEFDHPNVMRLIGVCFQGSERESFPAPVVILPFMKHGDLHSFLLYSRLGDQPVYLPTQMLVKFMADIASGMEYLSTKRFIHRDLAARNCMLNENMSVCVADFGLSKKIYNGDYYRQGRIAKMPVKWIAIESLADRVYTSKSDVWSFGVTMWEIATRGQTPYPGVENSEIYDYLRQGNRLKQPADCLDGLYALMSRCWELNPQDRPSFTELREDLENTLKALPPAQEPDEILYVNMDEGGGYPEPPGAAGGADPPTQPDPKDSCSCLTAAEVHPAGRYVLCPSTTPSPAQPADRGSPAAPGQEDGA
Protocol: (§1) The above assay procedure can be used to determine the IC50 for inhibition and/or the inhibition constant, Ki. The IC50 is defined as the concentration of compound required to reduce the enzyme activity by 50% under the condition of the assay. The IC50 value is estimated by preparing a 10 point curve using a 1/2 log dilution series (for example, a typical curve may be prepared using the following compound concentrations: 10 μM, 3 μM, 1 μM, 0.3 μM, 0.1 μM, 0.03 μM, 0.01 μM, 0.003 μM, 0.001 μM and 0 μM).
(§2) Axl (h) is incubated with 8 mM MOPS pH 7.0, 0.2 mM EDTA, 250 μM KKSRGDYMTMQIG, 10 mM MgAcetate and [γ-^33P-ATP] (specific activity approx. 500 cpm/pmol, concentration as required). The reaction is initiated by the addition of the MgATP mix. After incubation for 40 minutes at room temperature, the reaction is stopped by the addition of 3% phosphoric acid solution. 10 μL of the reaction is then spotted onto a P30 filtermat and washed three times for 5 minutes in 75 mM phosphoric acid and once in methanol prior to drying and scintillation counting.
(§3) The kinase assays described herein were performed at Millipore UK Ltd, Dundee Technology Park, Dundee DD2 1SW, UK.

Mer (h) = target: T2, Mer (h) (Homo sapiens, UniProt Q12866); assay: Mer (h) kinase assay
T2 construct: purchased Millipore UK Ltd
T2 sequence (Q12866 21-999): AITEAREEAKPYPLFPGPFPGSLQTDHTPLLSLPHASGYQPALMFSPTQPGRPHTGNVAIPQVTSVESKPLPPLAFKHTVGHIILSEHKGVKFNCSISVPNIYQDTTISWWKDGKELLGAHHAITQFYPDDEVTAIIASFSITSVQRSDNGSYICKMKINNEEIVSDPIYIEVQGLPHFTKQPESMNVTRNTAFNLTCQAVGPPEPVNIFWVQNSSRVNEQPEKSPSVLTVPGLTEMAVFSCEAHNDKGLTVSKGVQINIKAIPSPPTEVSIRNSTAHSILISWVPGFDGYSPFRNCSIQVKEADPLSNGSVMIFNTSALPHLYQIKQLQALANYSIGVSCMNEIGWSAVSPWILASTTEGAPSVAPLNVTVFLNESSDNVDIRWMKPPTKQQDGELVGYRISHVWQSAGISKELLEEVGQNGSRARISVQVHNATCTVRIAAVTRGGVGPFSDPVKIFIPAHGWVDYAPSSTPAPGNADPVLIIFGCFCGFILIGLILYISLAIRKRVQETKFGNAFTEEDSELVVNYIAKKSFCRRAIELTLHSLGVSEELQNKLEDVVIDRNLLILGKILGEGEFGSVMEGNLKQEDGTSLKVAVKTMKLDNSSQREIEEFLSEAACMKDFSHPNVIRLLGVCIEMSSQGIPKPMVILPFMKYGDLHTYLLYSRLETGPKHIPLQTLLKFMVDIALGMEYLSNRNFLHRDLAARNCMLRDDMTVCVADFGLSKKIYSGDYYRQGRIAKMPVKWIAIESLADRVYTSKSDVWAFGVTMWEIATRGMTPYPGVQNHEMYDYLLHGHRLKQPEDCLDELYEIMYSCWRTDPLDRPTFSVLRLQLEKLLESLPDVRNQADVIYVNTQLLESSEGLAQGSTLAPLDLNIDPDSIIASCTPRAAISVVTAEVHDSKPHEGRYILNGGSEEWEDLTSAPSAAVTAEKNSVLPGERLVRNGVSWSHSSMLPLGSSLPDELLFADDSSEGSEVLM
Protocol: as §1
as §2, with “Mer” for “Axl”, “EDTA, 30 mM NaCl,” for “EDTA,”, “GGMEDIYFEFMGGKKK,” for “KKSRGDYMTMQIG,”
as §3

c-Met (h) = target: T3, c-Met (h) (Homo sapiens, UniProt P08581); assay: c-Met (h) kinase assay
T3 construct: purchased Millipore UK Ltd
Protocol: Kinase assays can be performed by measurement of incorporation of γ-^33P ATP into immobilized myelin basic protein (MBP). High binding white 384 well plates (Greiner) are coated with MBP (Sigma #M-1891) by incubation of 60 μL/well of 20 μg/mL MBP in Tris-buffered saline (TBS; 50 mM Tris pH 8.0, 138 mM NaCl, 2.7 mM KCl) for 24 h at 4° C. Plates are washed 3× with 100 μL TBS. Kinase reactions are carried out in a total volume of 34 μL in kinase buffer (5 mM Hepes pH 7.6, 15 mM NaCl, 0.01% bovine gamma globulin (Sigma #I-5506), 10 mM MgCl2, 1 mM DTT, 0.02% TritonX-100). Compound dilutions are performed in DMSO and added to assay wells to a final DMSO concentration of 1%. Each data point is measured in duplicate, and at least two duplicate assays are performed for each individual compound determination. Enzyme is added to final concentrations of 10 nM or 20 nM, for example. A mixture of unlabeled ATP and γ-^33P ATP is added to start the reaction (2×10^6 cpm of γ-^33P ATP per well (3000 Ci/mmole) and 10 μM unlabeled ATP, typically. The reactions are carried out for 1 h at room temperature with shaking. Plates are washed 7× with TBS, followed by the addition of 50 μL/well scintillation fluid (Wallac). Plates are read using a Wallac Trilux counter. This is only one format of such assays; various other formats are possible, as known to one skilled in the art.
as §1
as §2, with “Met” for “Axl”, “KKKSPGEYVNIEFG,” for “KKSRGDYMTMQIG,”
as §3

T3 sequence (P08581 25-1390): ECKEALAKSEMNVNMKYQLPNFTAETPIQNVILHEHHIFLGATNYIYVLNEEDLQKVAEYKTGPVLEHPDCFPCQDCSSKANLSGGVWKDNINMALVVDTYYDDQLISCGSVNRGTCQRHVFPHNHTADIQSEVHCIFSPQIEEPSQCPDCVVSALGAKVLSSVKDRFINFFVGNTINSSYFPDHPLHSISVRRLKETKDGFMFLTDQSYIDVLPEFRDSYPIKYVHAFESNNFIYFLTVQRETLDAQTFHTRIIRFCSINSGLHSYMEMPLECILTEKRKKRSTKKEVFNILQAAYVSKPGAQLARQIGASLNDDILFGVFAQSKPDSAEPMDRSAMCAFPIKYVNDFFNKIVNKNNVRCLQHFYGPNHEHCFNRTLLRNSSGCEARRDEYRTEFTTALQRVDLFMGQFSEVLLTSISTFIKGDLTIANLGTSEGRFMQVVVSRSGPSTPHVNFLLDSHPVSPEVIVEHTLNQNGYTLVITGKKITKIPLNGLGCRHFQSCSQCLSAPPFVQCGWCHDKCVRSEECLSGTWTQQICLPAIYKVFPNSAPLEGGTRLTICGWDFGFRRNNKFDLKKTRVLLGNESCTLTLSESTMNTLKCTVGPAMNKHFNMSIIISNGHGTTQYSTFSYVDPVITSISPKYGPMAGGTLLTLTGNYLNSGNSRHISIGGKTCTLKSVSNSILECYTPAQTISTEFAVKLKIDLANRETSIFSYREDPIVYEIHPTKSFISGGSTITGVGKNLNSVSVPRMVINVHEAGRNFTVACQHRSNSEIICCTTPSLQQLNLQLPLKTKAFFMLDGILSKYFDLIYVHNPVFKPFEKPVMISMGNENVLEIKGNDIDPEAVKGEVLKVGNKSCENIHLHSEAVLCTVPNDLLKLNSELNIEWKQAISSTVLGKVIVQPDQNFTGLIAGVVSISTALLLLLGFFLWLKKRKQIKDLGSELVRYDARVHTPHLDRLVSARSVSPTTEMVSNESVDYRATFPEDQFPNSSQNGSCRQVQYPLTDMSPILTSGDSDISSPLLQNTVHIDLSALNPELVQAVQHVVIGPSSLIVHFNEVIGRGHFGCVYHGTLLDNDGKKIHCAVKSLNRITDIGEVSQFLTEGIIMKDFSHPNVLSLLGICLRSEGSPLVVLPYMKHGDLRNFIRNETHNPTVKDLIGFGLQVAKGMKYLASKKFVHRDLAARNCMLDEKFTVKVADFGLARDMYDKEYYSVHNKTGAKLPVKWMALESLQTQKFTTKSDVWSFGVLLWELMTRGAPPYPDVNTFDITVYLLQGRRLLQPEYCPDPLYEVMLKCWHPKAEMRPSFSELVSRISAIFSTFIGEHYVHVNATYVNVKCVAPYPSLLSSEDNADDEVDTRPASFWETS

`O=C(Nc1ccc(Oc2ccnc(NC(=O)C3CC3)c2)c(F)c1)c1c2n(n(-c3ccccc3)c1=O)CCC2` [Ex. 5, N-(4-((2-(cyclopropanecarboxamido)pyridin-4-yl)oxy)-3-fluorophenyl)-2-oxo-1-phenyl-2,4,5,6-tetrahydro-1H-pyrrolo[1,2-b]pyrazole-3-carboxamide] was tested, and the IC50 (Axl (h)) was 19 nM, the IC50 (Mer (h)) was 4 nM and the IC50 (c-Met (h)) was 15 nM.
Work on `CC(=O)Nc1cc(Oc2ccc(NC(=O)c3c4n(n(-c5ccccc5)c3=O)CCC4)cc2F)ccn1` [Ex. 6, N-(4-((2-acetamidopyridin-4-yl)oxy)-3-fluorophenyl)-2-oxo-1-phenyl-2,4,5,6-tetrahydro-1H-pyrrolo[1,2-b]pyrazole-3-carboxamide] yielded an IC50 (Axl (h)) of 36 nM, an IC50 (Mer (h)) of 33 nM and an IC50 (c-Met (h)) of 57 nM.
`O=C(Nc1ccc(Oc2ccnc(NC(=O)C3CC3)c2)cn1)c1c2n(n(-c3ccccc3)c1=O)CCCC2` [Ex. 8, N-(5-((2-(cyclopropanecarboxamido)pyridin-4-yl)oxy)pyridin-2-yl)-2-oxo-1-phenyl-1,2,4,5,6,7-hexahydropyrazolo[1,5-a]pyridine-3-carboxamide] gave an IC50 (Axl (h)) of 7 nM, an IC50 (Mer (h)) of 3 nM and an IC50 (c-Met (h)) of 5 nM.
In the case of `CC(=O)Nc1cc(Oc2ccc(NC(=O)c3c4n(n(-c5ccccc5)c3=O)CCCC4)nc2)ccn1` [Ex. 9, N-(5-((2-acetamidopyridin-4-yl)oxy)pyridin-2-yl)-2-oxo-1-phenyl-1,2,4,5,6,7-hexahydropyrazolo[1,5-a]pyridine-3-carboxamide], the IC50 (Axl (h)) is reported as 14 nM, the IC50 (Mer (h)) is reported as 12 nM and the IC50 (c-Met (h)) is reported as 27 nM.
For `O=C(Nc1ccc(Oc2ccnc(NC(=O)C3CC3)c2)cn1)c1c2n(n(-c3ccccc3)c1=O)CCOC2` [Ex. 11, N-(5-((2-(cyclopropanecarboxamido)pyridin-4-yl)oxy)pyridin-2-yl)-2-oxo-1-phenyl-2,4,6,7-tetrahydro-1H-pyrazolo[5,1-c][1,4]oxazine-3-carboxamide], the IC50 (Axl (h)) was 5 nM, the IC50 (Mer (h)) was 6 nM and the IC50 (c-Met (h)) was 12 nM.
`O=C(Nc1ccc(Oc2ccnc(NC(=O)C3CC3)c2)c(F)c1)c1c2n(n(-c3ccccc3)c1=O)CCOC2` [Ex. 17, N-(4-((2-(cyclopropanecarboxamido)pyridin-4-yl)oxy)-3-fluorophenyl)-2-oxo-1-phenyl-2,4,6,7-tetrahydro-1H-pyrazolo[5,1-c][1,4]oxazine-3-carboxamide] was tested, and the IC50 (Axl (h)) was 5 nM and the IC50 (c-Met (h)) was 8 nM.
`CC(=O)Nc1cc(Oc2ccc(NC(=O)c3c4n(n(-c5ccccc5)c3=O)CCOC4)cc2)ccn1` [Ex. 20, N-(4-((2-acetamidopyridin-4-yl)oxy)phenyl)-2-oxo-1-phenyl-2,4,6,7-tetrahydro-1H-pyrazolo[5,1-c][1,4]oxazine-3-carboxamide] gave an IC50 (Axl (h)) of 49 nM and an IC50 (Mer (h)) of 44 nM.
Molecule `Nc1nccc(Oc2ccc(NC(=O)c3c4n(n(-c5ccccc5)c3=O)CCCC4)nc2)c1Cl` [Ex. 21, N-(5-((2-amino-3-chloropyridin-4-yl)oxy)pyridin-2-yl)-2-oxo-1-phenyl-1,2,4,5,6,7-hexahydropyrazolo[1,5-a]pyridine-3-carboxamide] has an IC50 (Axl (h)) of 9 nM and an IC50 (c-Met (h)) of 14 nM.
`Nc1nccc(Oc2ccc(NC(=O)c3c4n(n(-c5ccccc5)c3=O)CCCC4)cc2)c1Cl` [Ex. 22, N-(4-((2-amino-3-chloropyridin-4-yl)oxy)phenyl)-2-oxo-1-phenyl-1,2,4,5,6,7-hexahydropyrazolo[1,5-a]pyridine-3-carboxamide] gave an IC50 (Axl (h)) of 16 nM and an IC50 (c-Met (h)) of 54 nM.
`Nc1nccc(Oc2ccc(NC(=O)c3c4n(n(-c5ccccc5)c3=O)CCCC4)cc2F)c1Cl` [Ex. 23, N-(4-((2-amino-3-chloropyridin-4-yl)oxy)-3-fluorophenyl)-2-oxo-1-phenyl-1,2,4,5,6,7-hexahydropyrazolo[1,5-a]pyridine-3-carboxamide] was tested, and the IC50 (Axl (h)) was 10 nM, the IC50 (Mer (h)) was 14 nM and the IC50 (c-Met (h)) was 30 nM.
